Laboratory results reported in patent US20090137572A1, “2-substituted-4-heteroaryl-pyrimidines useful for the treatment of proliferative disorders” (priority 2004, published 2009).
Read-outs that look alike come from different tables or passages of the source.

Experiments:
Assay type in all cases: biochemical
[1] = target: CDK9/cyclin T1 (Homo sapiens, UniProt P50750); test: CDK 9 assay (CTD peptide substrate); conditions: read-out: Kinase Inhibition pIC50 CDK9-cyclin T1 (converted)
Procedure, shortened: (§1)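 Radiometric filter-binding read-out: 32P transferred from 100 μM [γ-32P]ATP to biotinyl-(YSPTSPS)4 CTD peptide. Enzyme 0.5-2 μg recombinant human complex; 20 mM MOPS pH 7.2, 15 mM MgCl2, vanadate, DTT; 45 min, 30° C; avidin bound, P81 plate washed, counted.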

[2] = target: CDK7/cyclin H (Homo sapiens, UniProt P50613); test: CDK 7 assay (CTD peptide substrate); conditions: read-out: Kinase Inhibition pIC50 CDK7-cyclin H (converted)
CDK7/cyclin H, sequence (P50613 whole entry): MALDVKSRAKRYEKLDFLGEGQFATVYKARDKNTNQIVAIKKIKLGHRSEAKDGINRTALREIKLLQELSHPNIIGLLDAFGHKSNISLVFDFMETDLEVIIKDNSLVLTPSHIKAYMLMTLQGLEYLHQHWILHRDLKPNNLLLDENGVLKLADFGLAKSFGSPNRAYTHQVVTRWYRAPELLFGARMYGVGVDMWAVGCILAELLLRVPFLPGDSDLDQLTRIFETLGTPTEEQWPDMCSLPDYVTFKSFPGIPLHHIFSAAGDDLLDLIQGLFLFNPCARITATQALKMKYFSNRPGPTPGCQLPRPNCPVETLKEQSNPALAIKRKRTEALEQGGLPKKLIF
CDK7/cyclin H, sequence (P51946 whole entry partner): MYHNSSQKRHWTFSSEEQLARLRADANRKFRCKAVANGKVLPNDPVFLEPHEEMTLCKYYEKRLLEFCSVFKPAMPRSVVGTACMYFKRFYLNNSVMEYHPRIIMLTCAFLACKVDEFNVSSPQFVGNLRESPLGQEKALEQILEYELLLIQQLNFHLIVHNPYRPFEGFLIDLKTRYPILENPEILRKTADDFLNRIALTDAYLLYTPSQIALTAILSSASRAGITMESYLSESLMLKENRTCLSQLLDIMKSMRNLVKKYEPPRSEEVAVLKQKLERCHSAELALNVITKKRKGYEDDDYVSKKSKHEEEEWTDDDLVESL
Procedure, shortened: as §1

[3] = target: T1, protein kinases (panel of Table 4) (Homo sapiens, UniProt P35968); test: Kinase selectivity profile, kinase inhibition IC50 (Table 4), ATP 100 μM; conditions: kinase VEGFR2
T1 construct: other: kinase VEGFR2; ATP 100 μM
T1 sequence (P35968 whole entry): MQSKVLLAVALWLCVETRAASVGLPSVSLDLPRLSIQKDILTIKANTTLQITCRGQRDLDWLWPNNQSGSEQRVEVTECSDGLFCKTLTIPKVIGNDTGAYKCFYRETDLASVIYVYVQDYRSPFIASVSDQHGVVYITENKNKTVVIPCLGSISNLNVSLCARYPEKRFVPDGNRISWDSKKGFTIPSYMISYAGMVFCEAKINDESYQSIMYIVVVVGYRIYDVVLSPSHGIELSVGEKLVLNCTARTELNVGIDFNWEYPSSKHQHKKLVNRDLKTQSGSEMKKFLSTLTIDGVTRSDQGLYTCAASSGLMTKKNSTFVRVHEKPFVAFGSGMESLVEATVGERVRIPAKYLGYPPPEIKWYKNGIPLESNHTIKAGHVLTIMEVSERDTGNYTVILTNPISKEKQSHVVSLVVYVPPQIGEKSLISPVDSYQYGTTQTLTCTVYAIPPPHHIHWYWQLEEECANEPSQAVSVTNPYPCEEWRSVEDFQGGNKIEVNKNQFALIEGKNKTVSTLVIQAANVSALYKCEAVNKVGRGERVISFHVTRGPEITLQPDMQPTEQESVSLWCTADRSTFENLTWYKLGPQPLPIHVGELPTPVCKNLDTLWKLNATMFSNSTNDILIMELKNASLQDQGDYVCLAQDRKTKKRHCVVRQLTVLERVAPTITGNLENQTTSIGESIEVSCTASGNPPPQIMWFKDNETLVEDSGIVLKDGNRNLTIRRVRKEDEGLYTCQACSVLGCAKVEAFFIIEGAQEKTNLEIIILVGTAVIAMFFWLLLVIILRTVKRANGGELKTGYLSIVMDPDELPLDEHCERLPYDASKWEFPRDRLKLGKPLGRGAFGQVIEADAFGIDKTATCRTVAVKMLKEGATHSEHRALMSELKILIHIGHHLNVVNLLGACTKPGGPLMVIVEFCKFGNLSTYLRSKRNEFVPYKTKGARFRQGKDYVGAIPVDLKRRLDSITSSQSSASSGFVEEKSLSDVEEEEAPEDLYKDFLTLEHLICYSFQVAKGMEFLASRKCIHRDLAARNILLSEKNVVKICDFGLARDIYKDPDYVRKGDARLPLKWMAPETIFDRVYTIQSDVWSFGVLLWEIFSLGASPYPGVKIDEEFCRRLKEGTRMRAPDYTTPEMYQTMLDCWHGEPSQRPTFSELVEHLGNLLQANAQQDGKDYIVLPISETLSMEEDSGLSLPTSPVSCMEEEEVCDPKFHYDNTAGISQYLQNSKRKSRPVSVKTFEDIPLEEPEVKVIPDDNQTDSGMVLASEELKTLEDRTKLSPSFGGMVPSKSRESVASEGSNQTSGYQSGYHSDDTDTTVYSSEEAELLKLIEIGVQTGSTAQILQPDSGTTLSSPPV
Method: (§2) For the assays shown in Table 3, the kinases were assayed at the following ATP concentrations: SAPK4, PKBΔph, GSK3b, SAPK3, CK2, MKK1, PIM2, IKKB, ERK8, and PRK2 at 5 μM; JNK, PRAK, ROCK-II, SAPK2b, CDK2, CHK1, MSK1, CSK, P70S6K, PKA, CK1, MAPKAP-K2, SGK, PKCa, PDK1, NEK 7, and MAPKAP-K3 at 20 μM; SAPK2a, LCK, AMPK, MAPK2, DYRK1a, MAPKAP-K1a, NEK-6, NEK2a, PBK, CAMK-1, SRPK-1, JNK3, MNK2, RSK2, MNK1, PKBB, and SmMLCK at 50 μM. For the assays in Table 4 the ATP concentration was 100 μM throughout.

[4] = target: T2, protein kinases (panel of Table 4) (Homo sapiens, UniProt O14965); test: as above; conditions: kinase Aurora A
T2 construct: other: kinase Aurora A; ATP 100 μM
T2 sequence (O14965 1-403): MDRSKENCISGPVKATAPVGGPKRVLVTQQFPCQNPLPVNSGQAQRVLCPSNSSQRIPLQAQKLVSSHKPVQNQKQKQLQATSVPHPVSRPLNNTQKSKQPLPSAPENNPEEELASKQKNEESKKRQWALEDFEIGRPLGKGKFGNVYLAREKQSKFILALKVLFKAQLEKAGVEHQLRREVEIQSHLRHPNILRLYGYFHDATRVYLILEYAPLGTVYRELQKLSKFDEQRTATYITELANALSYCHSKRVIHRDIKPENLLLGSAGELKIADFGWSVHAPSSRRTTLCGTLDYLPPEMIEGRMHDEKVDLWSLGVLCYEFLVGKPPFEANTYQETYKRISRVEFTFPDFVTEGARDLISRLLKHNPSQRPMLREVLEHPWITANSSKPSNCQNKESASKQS
Method: as §2

[5] = target: T3, protein kinases (panel of Table 4); test: as above; conditions: kinase CaMKII
T3 construct: other: kinase CaMKII; ATP 100 μM
Method: as §2

[6] = target: GSK3b (Homo sapiens, UniProt P49841); test: Kinase assay (radioactive phosphate incorporation), GSK-3b; conditions: read-out: Kinase Inhibition pIC50 GSK-3b (converted)
GSK3b, sequence (P49841 whole entry, species assumed): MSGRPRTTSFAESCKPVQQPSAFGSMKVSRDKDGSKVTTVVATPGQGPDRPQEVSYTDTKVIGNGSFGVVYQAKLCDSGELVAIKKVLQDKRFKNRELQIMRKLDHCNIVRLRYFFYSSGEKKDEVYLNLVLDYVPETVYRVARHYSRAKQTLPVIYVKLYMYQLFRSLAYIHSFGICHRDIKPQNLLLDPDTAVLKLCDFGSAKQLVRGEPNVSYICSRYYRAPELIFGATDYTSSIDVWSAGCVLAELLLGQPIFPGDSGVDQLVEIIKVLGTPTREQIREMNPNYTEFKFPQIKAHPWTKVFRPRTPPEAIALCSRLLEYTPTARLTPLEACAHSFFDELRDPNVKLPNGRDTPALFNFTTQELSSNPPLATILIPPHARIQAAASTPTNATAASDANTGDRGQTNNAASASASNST
Procedure, shortened: (§3)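 Inhibition was measured as transfer of radiolabelled phosphate from [γ-32P]-ATP (100 μM ATP, 15 mM MgCl2) onto polypeptide substrates by recombinant kinases or kinase complexes. Reactions ran at 30° C in MOPS/β-glycerophosphate buffer, pH 7.4, were stopped on ice and filtered before scintillation counting.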

[7] = target: CDK4-cyclin D1 (Homo sapiens, UniProt P11802); test: Kinase assay (radioactive phosphate incorporation), CDK4-cyclin D1; conditions: read-out: Kinase Inhibition pIC50 CDK4-cyclin D1 (converted)
CDK4-cyclin D1, sequence (P11802 whole entry): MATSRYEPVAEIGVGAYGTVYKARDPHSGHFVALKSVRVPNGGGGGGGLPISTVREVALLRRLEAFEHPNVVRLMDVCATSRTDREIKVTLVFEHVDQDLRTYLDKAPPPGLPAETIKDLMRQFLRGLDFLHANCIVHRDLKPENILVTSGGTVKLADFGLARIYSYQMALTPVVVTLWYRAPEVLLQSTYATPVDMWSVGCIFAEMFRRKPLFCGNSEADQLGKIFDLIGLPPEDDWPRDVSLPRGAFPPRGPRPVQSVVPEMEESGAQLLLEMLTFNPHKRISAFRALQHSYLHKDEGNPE
CDK4-cyclin D1, sequence (P24385 whole entry partner): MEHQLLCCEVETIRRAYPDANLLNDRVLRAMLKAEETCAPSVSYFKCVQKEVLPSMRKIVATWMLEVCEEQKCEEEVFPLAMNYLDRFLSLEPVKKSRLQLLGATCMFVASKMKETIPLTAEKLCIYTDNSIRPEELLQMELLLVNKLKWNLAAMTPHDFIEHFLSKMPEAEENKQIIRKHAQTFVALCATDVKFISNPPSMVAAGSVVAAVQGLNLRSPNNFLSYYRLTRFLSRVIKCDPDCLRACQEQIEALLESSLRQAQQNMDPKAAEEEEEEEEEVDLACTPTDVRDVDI
Procedure, shortened: as §3

[8] = target: CDK1-cyclin B (Homo sapiens, UniProt P06493); test: Kinase assay (radioactive phosphate incorporation), CDK1-cyclin B; conditions: read-out: Kinase Inhibition pIC50 CDK1-cyclin B (converted)
CDK1-cyclin B, sequence (P06493 whole entry): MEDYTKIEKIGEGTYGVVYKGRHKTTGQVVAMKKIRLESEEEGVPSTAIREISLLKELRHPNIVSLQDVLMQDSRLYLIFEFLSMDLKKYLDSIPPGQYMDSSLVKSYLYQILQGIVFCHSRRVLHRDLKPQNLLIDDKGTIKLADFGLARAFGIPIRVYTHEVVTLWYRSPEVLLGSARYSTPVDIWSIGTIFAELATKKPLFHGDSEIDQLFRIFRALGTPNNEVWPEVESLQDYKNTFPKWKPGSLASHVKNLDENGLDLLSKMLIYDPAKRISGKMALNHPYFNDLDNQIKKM
CDK1-cyclin B, sequence (P14635 whole entry partner): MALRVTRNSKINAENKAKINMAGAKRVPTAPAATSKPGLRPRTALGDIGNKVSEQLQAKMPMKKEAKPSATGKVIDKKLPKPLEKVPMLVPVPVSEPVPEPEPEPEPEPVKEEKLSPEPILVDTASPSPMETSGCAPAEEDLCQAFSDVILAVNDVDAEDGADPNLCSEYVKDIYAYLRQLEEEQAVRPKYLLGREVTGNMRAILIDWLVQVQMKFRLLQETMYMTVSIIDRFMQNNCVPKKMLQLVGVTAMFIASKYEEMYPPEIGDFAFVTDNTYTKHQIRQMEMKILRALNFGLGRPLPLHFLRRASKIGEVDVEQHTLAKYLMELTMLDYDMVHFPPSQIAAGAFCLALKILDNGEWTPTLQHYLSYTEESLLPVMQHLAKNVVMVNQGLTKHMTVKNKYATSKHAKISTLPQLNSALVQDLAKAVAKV
Procedure, shortened: as §3

[9] = target: CDK2-cycline E (Homo sapiens, UniProt P24941); test: Kinase assay (radioactive phosphate incorporation), CDK2-cyclin E; conditions: read-out: Kinase Inhibition pIC50 CDK2-cycline E (converted)
Procedure, shortened: as §3

[10] = target: CDK2-cyclin A (Homo sapiens, UniProt P24941); test: Kinase assay (radioactive phosphate incorporation), CDK2-cyclin A; conditions: read-out: Kinase Inhibition pIC50 CDK2-cyclin A (converted)
Procedure, shortened: as §3

[11] = target: T4, protein kinases (panel of Table 4) (Homo sapiens, UniProt P24941); test: Kinase selectivity profile, kinase inhibition IC50 (Table 4), ATP 100 μM
T4 construct: other: kinase CDK2A; ATP 100 μM; other: kinase CDK2E
Method: as §2

[12] = kinase CDK2A, read-out: Kinase inhibition IC50, CDK2A
[13] = kinase CDK2E, read-out: Kinase inhibition IC50, CDK2E

CDK9/cyclin T1, sequence (P50750 whole entry): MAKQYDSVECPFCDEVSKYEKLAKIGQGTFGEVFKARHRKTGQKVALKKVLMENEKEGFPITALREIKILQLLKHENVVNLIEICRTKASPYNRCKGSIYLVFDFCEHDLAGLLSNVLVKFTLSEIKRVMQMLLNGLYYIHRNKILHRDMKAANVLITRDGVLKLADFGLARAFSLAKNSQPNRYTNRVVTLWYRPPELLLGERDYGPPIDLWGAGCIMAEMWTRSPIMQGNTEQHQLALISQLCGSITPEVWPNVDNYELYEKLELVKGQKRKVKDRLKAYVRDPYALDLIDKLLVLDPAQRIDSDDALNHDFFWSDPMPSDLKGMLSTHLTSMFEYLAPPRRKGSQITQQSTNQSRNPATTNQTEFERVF
CDK9/cyclin T1, sequence (O60563 whole entry partner): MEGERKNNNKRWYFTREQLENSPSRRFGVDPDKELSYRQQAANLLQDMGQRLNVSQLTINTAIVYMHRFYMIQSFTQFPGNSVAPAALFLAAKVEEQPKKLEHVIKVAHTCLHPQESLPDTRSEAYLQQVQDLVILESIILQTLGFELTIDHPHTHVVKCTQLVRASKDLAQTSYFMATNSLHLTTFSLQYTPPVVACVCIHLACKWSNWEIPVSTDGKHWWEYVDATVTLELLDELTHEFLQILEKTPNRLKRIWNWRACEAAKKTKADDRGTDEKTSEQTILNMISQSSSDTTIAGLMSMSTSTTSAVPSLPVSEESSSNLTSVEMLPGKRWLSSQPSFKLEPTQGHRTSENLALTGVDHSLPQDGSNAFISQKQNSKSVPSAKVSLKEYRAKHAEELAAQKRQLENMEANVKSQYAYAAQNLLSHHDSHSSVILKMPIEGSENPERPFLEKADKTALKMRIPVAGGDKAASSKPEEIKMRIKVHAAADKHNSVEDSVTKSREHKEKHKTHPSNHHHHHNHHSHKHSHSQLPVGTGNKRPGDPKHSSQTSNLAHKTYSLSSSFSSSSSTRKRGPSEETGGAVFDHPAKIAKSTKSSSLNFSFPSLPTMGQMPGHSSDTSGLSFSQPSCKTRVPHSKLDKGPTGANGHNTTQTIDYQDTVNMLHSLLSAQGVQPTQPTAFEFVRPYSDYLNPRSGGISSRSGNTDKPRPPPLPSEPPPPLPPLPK

| Structure (SMILES) | IC50 [1] [nM] | IC50 [2] [nM] | IC50 [3] [nM] | IC50 [4] [nM] | IC50 [5] [nM] | IC50 [6] [nM] | IC50 [7] [nM] | IC50 [8] [nM] | IC50 [9] [nM] | IC50 [10] [nM] | IC50 [11, 12] [nM] | IC50 [11, 13] [nM] |
| --- | --- | --- | --- | --- | --- | --- | --- | --- | --- | --- | --- | --- |
| CNc1nc(C)c(-c2ccnc(Nc3cccc(S(N)(=O)=O)c3)n2)s1 [Compound 19, 3-[4-(4-Methyl-2-methylamino-thiazol-5-yl)-pyrimidin-2-ylamino]-benzenesulfonamide] | 2.51 | 50.1 | 36 | 40 | 4300 | 158 | 15.8 | 200 |  |  |  |  |
| CNc1nc(C)c(-c2ccnc(Nc3cccc(S(C)(=O)=O)c3)n2)s1 [Compound 27, (3-Methanesulfonyl-phenyl)-[4-(4-methyl-2-methylamino-thiazol-5-yl)-pyrimidin-2-yl]-amine] | 1 | 200 | 44 | 320 | > 10000 | 100 | 158 | 251 | 3.16 | 6.31 | 7 | 3 |
| CNc1nc(C)c(-c2ccnc(Nc3ccc(C)c(S(=O)(=O)N4CCOCC4)c3)n2)s1 [Compound 37, [4-(4-Methyl-2-methylamino-thiazol-5-yl)-pyrimidin-2-yl]-[4-methyl-3-(morpholine-4-sulfonyl)-phenyl]-amine] |  | 3980 | 390 | 1100 | > 10000 | 1260 |  |  | 3160 |  | > 10000 | 3000 |
| Cc1ccc(Nc2nccc(-c3sc(N)nc3C)n2)cc1S(=O)(=O)N1CCOCC1 [Compound 38, [4-(2-Amino-4-methyl-thiazol-5-yl)-pyrimidin-2-yl]-[4-methyl-3-(morpholine-4-sulfonyl)-phenyl]-amine] | 25.1 | 631 |  | 450 | 6200 | 2000 |  |  |  |  | > 10000 | > 10000 |
| COCCNS(=O)(=O)c1cccc(Nc2nccc(-c3sc(N)nc3C)n2)c1 [Compound 55, 3-[4-(2-Amino-4-methyl-thiazol-5-yl)-pyrimidin-2-ylamino]-N-(2-methoxy-ethyl)-benzenesulfonamide] | 31.6 | 631 | 240 | 160 | > 10000 | 501 | 1580 | 3160 | 251 | 2000 | 2100 | 270 |
| CCNc1nc(C)c(-c2ccnc(Nc3ccc(N4CCNCC4)cc3)n2)s1 [Compound 59, [4-(2-Ethylamino-4-methyl-thiazol-5-yl)-pyrimidin-2-yl]-(4-piperazin-1-yl-phenyl)-amine] | 100 | 126 | 46 | 90 | 1000 |  | 39.8 | 1000 | 158 | 501 | 630 | 150 |
| Cc1nc(CS(=O)(=O)c2cccs2)sc1-c1ccnc(Nc2ccc(N3CCOCC3)cc2)n1 [Compound 138, {4-[4-Methyl-2-(thiophene-2-sulfonylmethyl)-thiazol-5-yl]-pyrimidin-2-yl}-(4-morpholin-4-yl-phenyl)-amine] |  | 3160 |  |  |  |  |  |  | 3980 |  |  |  |
